Test results: patent US8084649B2, “Herbicides” (Syngenta Crop Protection, inc., priority 2007, dated 2011)

Columns and labels:
[1] = tested on: Alopecurus myosuroides (ALOMY); test: Pre-emergence herbicidal activity, glasshouse pot test; assay type: in vivo; conditions: Alopecurus myosuroides, 480 h, rate 500 g/ha, evaluated after 20 days, read-out: Pre-emergence activity, ALOMY (100=total damage to plant; 0=no damage to plant)
Procedure, shortened: (§1)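 Test compound, taken up in acetone with an Emulsogen EL/NMP/dipropylene glycol monomethyl ether/X-77 formulant and diluted with water, was sprayed onto soil of freshly sown pots after one day of cultivation. Evaluation at 20 days used a 0–100 injury rating.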

Avena fatua (AVEFA) [2] = test: as above; assay type: in vivo; conditions: Avena fatua, 480 h, rate 500 g/ha, evaluated after 20 days, read-out: Pre-emergence activity, AVEFA (100=total damage to plant; 0=no damage to plant)
Procedure, shortened: as §1

[3] = tested on: Digitaria sanguinalis (DIGSA); test: as above; assay type: in vivo; conditions: Digitaria sanguinalis, 480 h, rate 500 g/ha, evaluated after 20 days, read-out: Pre-emergence activity, DIGSA (100=total damage to plant; 0=no damage to plant)
Procedure, shortened: as §1

[4] = tested on: Echinochloa crus-galli (ECHCG); test: as above; assay type: in vivo; conditions: Echinochloa crus-galli, 480 h, rate 500 g/ha, evaluated after 20 days, read-out: Pre-emergence activity, ECHCG (100=total damage to plant; 0=no damage to plant)
Procedure, shortened: as §1

Lolium perenne (LOLPE) [5] = test: as above; assay type: in vivo; conditions: Lolium perenne, 480 h, rate 500 g/ha, evaluated after 20 days, read-out: Pre-emergence activity, LOLPE (100=total damage to plant; 0=no damage to plant)
Procedure, shortened: as §1

Setaria faberi (SETFA) [6] = test: as above; assay type: in vivo; conditions: Setaria faberi, 480 h, rate 500 g/ha, evaluated after 20 days, read-out: Pre-emergence activity, SETFA (100=total damage to plant; 0=no damage to plant)
Procedure, shortened: as §1

[7] = tested on: Alopecurus myosuroides (ALOMY); test: Post-emergence herbicidal activity, glasshouse pot test; assay type: in vivo; conditions: Alopecurus myosuroides, evaluated after 14 or 15 days, read-out: Post-emergence activity, ALOMY (100=total damage to plant; 0=no damage to plant); for pest or weed control at 500 g/ha: rate 500 g/ha; for pest or weed control at 125 g/ha: rate 125 g/ha
Procedure, shortened: (§2)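 Foliar application to ten-day-old pot-grown seedlings; formulation: acetone plus solvent/surfactant blend (Emulsogen EL, NMP, DPGME, X-77), diluted in water. Scoring 14/15 d post-spray, 0–100% damage.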

Avena fatua (AVEFA) [8] = test: as above; assay type: in vivo; conditions: Avena fatua, evaluated after 14 or 15 days, read-out: Post-emergence activity, AVEFA (100=total damage to plant; 0=no damage to plant); for pest or weed control at 500 g/ha: rate 500 g/ha; for pest or weed control at 125 g/ha: rate 125 g/ha
Procedure, shortened: as §2

[9] = tested on: Digitaria sanguinalis (DIGSA); test: as above; assay type: in vivo; conditions: Digitaria sanguinalis, evaluated after 14 or 15 days, read-out: Post-emergence activity, DIGSA (100=total damage to plant; 0=no damage to plant); for pest or weed control at 500 g/ha: rate 500 g/ha; for pest or weed control at 125 g/ha: rate 125 g/ha
Procedure, shortened: as §2

[10] = tested on: Echinochloa crus-galli (ECHCG); test: as above; assay type: in vivo; conditions: Echinochloa crus-galli, evaluated after 14 or 15 days, read-out: Post-emergence activity, ECHCG (100=total damage to plant; 0=no damage to plant); for pest or weed control at 500 g/ha: rate 500 g/ha; for pest or weed control at 125 g/ha: rate 125 g/ha
Procedure, shortened: as §2

Lolium perenne (LOLPE) [11] = test: as above; assay type: in vivo; conditions: Lolium perenne, evaluated after 14 or 15 days, read-out: Post-emergence activity, LOLPE (100=total damage to plant; 0=no damage to plant); for pest or weed control at 500 g/ha: rate 500 g/ha; for pest or weed control at 125 g/ha: rate 125 g/ha
Procedure, shortened: as §2

Setaria faberi (SETFA) [12] = test: as above; assay type: in vivo; conditions: Setaria faberi, evaluated after 14 or 15 days, read-out: Post-emergence activity, SETFA (100=total damage to plant; 0=no damage to plant); for pest or weed control at 500 g/ha: rate 500 g/ha; for pest or weed control at 125 g/ha: rate 125 g/ha
Procedure, shortened: as §2

Row | Structure (SMILES) | melting point | pest or weed control at 500 g/ha [1] | pest or weed control at 500 g/ha (Avena fatua (AVEFA) [2]) | pest or weed control at 500 g/ha [3] | pest or weed control at 500 g/ha [4] | pest or weed control at 500 g/ha (Lolium perenne (LOLPE) [5]) | pest or weed control at 500 g/ha (Setaria faberi (SETFA) [6]) | pest or weed control at 500 g/ha [7] | pest or weed control at 500 g/ha (Avena fatua (AVEFA) [8]) | pest or weed control at 500 g/ha [9] | pest or weed control at 500 g/ha [10] | pest or weed control at 500 g/ha (Lolium perenne (LOLPE) [11]) | pest or weed control at 500 g/ha (Setaria faberi (SETFA) [12]) | pest or weed control at 125 g/ha [7] | pest or weed control at 125 g/ha (Avena fatua (AVEFA) [8]) | pest or weed control at 125 g/ha [9] | pest or weed control at 125 g/ha [10] | pest or weed control at 125 g/ha (Lolium perenne (LOLPE) [11]) | pest or weed control at 125 g/ha (Setaria faberi (SETFA) [12])
1 | Cc1ccc(C)c(C2=C(OC(=O)N(C)CCC#N)CC3(CCOCC3)CC2=O)c1 [Compound P57] | 108 to 114 °C |  |  |  |  |  |  |  |  |  |  |  |  |  |  |  |  |  | 
2 | CCc1ccc(-c2ccc(Cl)cc2)cc1C1=C(O)CC2(CCOCC2)CC1=O [Compound T4, 9-(5-(4′-chlorophenyl)-2-ethylphenyl)-3-oxaspiro[5.5]undecane-8,10-dione] | 94.5 to 97.5 °C | 70% | 70% | 100% | 100% | 70% | 100% | 90% | 80% | 100% | 100% | 70% | 90% |  |  |  |  |  | 
3 | CCc1cc(C)cc(CC)c1C1=C(O)CC(CC(C)[S+]([O-])CC)CC1=O (stereo not drawn) [Compound T29, 2-(2,6-diethyl-4-methylphenyl)-5-[2-(ethylsulfinyl)propyl]cyclohexane-1,3-dione] | 58 to 61 °C | 100% | 90% | 100% | 100% | 100% | 100% | 90% | 100% | 100% | 100% | 90% | 90% |  |  |  |  |  | 
4 | CCc1cc(C)cc(CC)c1C1=C(O)CC(CC(C)[S+]([O-])C(C)C)CC1=O (stereo not drawn) [Compound T55] |  | 100% | 90% | 100% | 100% | 100% | 90% |  |  |  |  |  |  | 90% | 80% | 80% | 90% | 80% | 60%
5 | CCc1ccc(-c2ccc(Cl)cc2)cc1C1=C(O)CC(CCSC)CC1=O (stereo not drawn) [Compound T65] |  | 90% | 60% | 100% | 100% | 70% | 100% |  |  |  |  |  |  | 90% | 90% | 90% | 100% | 70% | 90%
6 | CCc1cc(C)cc(CC)c1C1=C(O)CC2(CCC(OC)CC2)CC1=O (stereo not drawn) [Compound T68] |  | 90% | 70% | 100% | 70% | 100% | 30% |  |  |  |  |  |  | 80% | 40% | 30% | 20% | 80% | 20%
7 | COC1CCC2(CC1)CC(=O)C(c1cc(-c3ccc(Cl)cc3)ccc1C)=C(O)C2 (stereo not drawn) [Compound T69] |  | 0% | 30% | 100% | 70% | 60% | 70% |  |  |  |  |  |  | 20% | 10% | 0% | 0% | 50% | 0%
